Test results from patent US20260240851A1, “Treatment of Parkinson's Disease in a Patient Using a Glucocerebrosidase Activator” (BIAL - R&D Investments, S.A., priority 2023, published 2026).
Like-named read-outs stand apart in the source and are kept apart here.

Assays:
[1] = LTI-291-001: CNS (NeuroCart) assessments; format: in vivo, human; conditions: single doses 3-90 mg, healthy subjects
Experimental: The pharmacodynamic evaluations consisted of a battery of CNS (NeuroCart®) assessments, including Saccadic Eye Movements, Smooth Pursuit Eye Movements, Adaptive Tracking, Body Sway, Visual Verbal Learning Test, and EEG. GluCer was measured in plasma and PBMCs as a biomarker of pharmacological effect.

[2] = LTI-291-001: safety and tolerability; format: in vivo, human
Experimental: This study was a first-in-human Phase 1, randomized, double-blind, placebo-controlled, single-ascending dose study to evaluate the safety and tolerability, PK, and PD of escalating single oral doses of Compound A (3, 10, 30, and 90 mg) in 4 cohorts of healthy subjects. A total of 32 subjects received a single oral dose of Compound A (8 per dose group) and 8 subjects received placebo. The effect of food on the PK of Compound A was evaluated by administering a second single oral dose of 10 mg Compound A to the subjects in Cohort 2 on a separate occasion, after subjects had completed a high-fat breakfast. Blood samples for Compound A PK were collected up to 48 hours after each dose.

[3] = LTI-291-003 multiple dose study in GBA-PD: plasma and CSF pharmacokinetics; format: in vivo, human; conditions: for Tmin / Tmax: median; for Kp at 4 h / Cmax / AUC(0-t) / Tmax: human, oral; for Kp at 4 h: CSF and plasma, after the 28th daily dose, read-out: CSF-to-plasma concentration ratio, mean (SD); for Cmax / AUC(0-t) / Tmax: plasma
Source text: This study was a Phase 1b, randomized, double-blind, placebo-controlled, multiple oral dose study of Compound A in 40 subjects (aged 40 to 80 years) with GBA-PD. Approximately 50% of the enrolled subjects had major (loss of 30%-50% total activity) mutations in GCase and 50% had polymorphism mutation (loss of 10%-20% of total activity) mutations in GCase. The objectives of this study were to investigate the safety, tolerability, and PK of multiple once-daily oral administration of Compound A and to explore the accompanying pharmacodynamic changes in subjects with GBA-PD with major and polymorphism mutations. Subjects received once-daily oral doses of 10 mg (n=10), 30 mg (n=10), or 60 mg (2×30 mg capsules) (n=10) Compound A or placebo (n=10) for 28 consecutive days.
Blood samples for Compound A concentrations were collected up to 6 hours after the first and last doses. CSF samples for Compound A concentrations were taken before the first dose and 4 hours after the last dose for each dose level.

[4] = LTI-291-004: fMRI, FDG-PET and functional outcome measures; format: in vivo, human
Experimental: This study was a Phase 1B, randomized, double-blind, placebo-controlled, multiple oral dose study of Compound A in 14 subjects (aged 51 to 81 years) with GBA-PD. The objectives of this study were to investigate the safety, tolerability, and PK of multiple once-daily oral administration of Compound A and to explore the accompanying pharmacodynamic changes. Subjects received once-daily oral doses of 10 mg (n=6) or 60 mg (2×30 mg capsules) (n=6) Compound A or placebo (n=2) for 28 consecutive days. PK samples were measured once on Day 7 and Day 14 and 4 times after the last dose on Day 28. Plasma concentrations were summarized at each time point, and no PK parameters were estimated. The PD evaluations included fMRI measures; FDG-PET to determine the metabolic rate of glucose in specific regions of the brain; and functional outcome measures (MDS-UPDRS Part III and the MMSE). GluCer, GluSph, and LacCer and other sphingolipids were measured in PBMCs and plasma as biomarkers of pharmacological effect.

[5] = after 6 days of dosing with 60 mg, Madopar portion
Experimental: This was a Phase 1, non-randomized, open-label, 2-cohort, cross-over, DDI study in healthy male and female subjects.
In Cohort 2, a single oral dose 100 mg/25 mg levodopa-benserazide (Madopar®) IR was administered alone on Day 1.

[6] = BIA 28-6156-105: continuous cardiac monitoring, concentration-QTc analysis
[7] = 10 mg daily, dose 28, GBA-PD, geometric mean
[8] = 30 mg daily, dose 1, GBA-PD, geometric mean
[9] = 30 mg daily, dose 28, GBA-PD, geometric mean
[10] = 60 mg daily, dose 1, GBA-PD, geometric mean
[11] = 60 mg daily, dose 28, GBA-PD, geometric mean

In the case of `CCCCCO[C@H]1CC[C@H](NC(=O)c2cnn3c(C)cc(C)nc23)CC1` [Compound A, 5,7-dimethyl-N-((1S*,4S)-4-(pentyloxy)cyclohexyl)pyrazolo[1,5-a]pyrimidine-3-carboxamide], the “effects on CNS (Neurocart) tests” value [1] is reported as “no dose-dependent effects”, the “AE fatigue, subjects” value ([2]; all Compound A groups) is reported as 7.5% and the “AE headache, subjects” value ([2]; all Compound A groups) is reported as 12.5%. The “AE somnolence, subjects” value ([2]; all Compound A groups) was 10%, the “at least one AE in the GI system organ class, subjects” value ([2]; all Compound A groups) was 7.5% and the “vital signs, laboratory safety assessments, ECG parameters” value ([2]; single doses) was “no clinically significant safety observations”. The “deaths, SAEs, severe AEs, discontinuations due to AEs” value ([2]; single doses 3-90 mg) was “No deaths, other SAEs, severe AEs, or discontinuations due to AEs”, the Cmax/dose ([3]; 10 mg daily, dose 1, GBA-PD, geometric mean) was 25.4 ng/mL/mg and the AUC0-last/dose ([3]; 10 mg daily, dose 1, GBA-PD, geometric mean (% CV)) was 109 (32.8) ng · h/mL mg. The AUC0-last/dose [3, 7] was 252 ng·h/mL/mg, the Cmax/dose [3, 7] was 52.0 ng/mL/mg and the Cmin [3, 7] was 246 ng/mL. It also gave a Tmin ([3]; 10 mg daily, dose 28, GBA-PD) of 26.3 h, an AUC0-last/dose [3, 8] of 76.8 ng·h/mL/mg and a Cmax/dose [3, 8] of 18.7 ng/mL/mg. It also gave an AUC0-last/dose [3, 9] of 241 ng·h/mL/mg, a Cmax/dose [3, 9] of 47.9 ng/mL/mg and a Cmin [3, 9] of 788 ng/mL. For the same compound, the Tmin ([3]; 30 mg daily, dose 28, GBA-PD) was 26.1 h, the AUC0-last/dose [3, 10] was 102 ng·h/mL/mg and the Cmax/dose [3, 10] was 25.5 ng/mL/mg. The Cmax/dose [3, 11] was 46.6 ng/mL/mg, the Cmin [3, 11] was 1370 ng/mL and the AUC0-last/dose ([3]; 60 mg daily, dose 28, GBA-PD, geometric mean (% CV)) was 234 (15.7) ng · h/mL mg. For the same compound, the Tmin ([3]; 60 mg daily, dose 28, GBA-PD) was 26.0 h, the “total exposure (Cmax and AUC0-last) versus dose” value ([3]; 10 to 60 mg, after 1st and 28th dose) was “increase in a dose proportional manner” and the “time of peak plasma concentrations (median)” value ([3]; after the 1st and 28th daily dose) was 2.0 h. The Kp at 4 h ([3]; 10 mg) was 0.0113, the Kp at 4 h ([3]; 30 mg) was 0.0122 and the Kp at 4 h ([3]; 60 mg) was 0.0115. It also gave a Cmax ([3]; 10 mg, 10 mg daily, dose 1, GBA-PD, geometric mean (% CV)) of 254 ng/mL, an AUC(0-t) ([3]; 10 mg, 10 mg daily, dose 1, GBA-PD, geometric mean, read-out: AUC0-6) of 1080 ng·h/mL and an AUC(0-t) ([3]; 10 mg, 10 mg daily, dose 1, GBA-PD, geometric mean, read-out: AUC0-last) of 1090 ng·h/mL. For the same compound, the Cmax ([3]; 10 mg, 10 mg daily, dose 28, GBA-PD, geometric mean) was 520 ng/mL, the AUC(0-t) ([3]; 10 mg, 10 mg daily, dose 28, GBA-PD, geometric mean, read-out: AUC0-6) was 2520 ng·h/mL and the AUC(0-t) ([3]; 10 mg, 10 mg daily, dose 28, GBA-PD, geometric mean, read-out: AUC0-last) was 2520 ng·h/mL. For the same compound, the Cmax ([3]; 30 mg, 30 mg daily, dose 1, GBA-PD, geometric mean (% CV)) was 561 ng/mL, the AUC(0-t) ([3]; 30 mg, 30 mg daily, dose 1, GBA-PD, geometric mean, read-out: AUC0-6) was 2300 ng·h/mL and the AUC(0-t) ([3]; 30 mg, 30 mg daily, dose 1, GBA-PD, geometric mean, read-out: AUC0-last) was 2300 ng·h/mL. The Cmax ([3]; 30 mg, 30 mg daily, dose 28, GBA-PD, geometric mean) was 1440 ng/mL, the AUC(0-t) ([3]; 30 mg, 30 mg daily, dose 28, GBA-PD, geometric mean, read-out: AUC0-6) was 7230 ng·h/mL and the AUC(0-t) ([3]; 30 mg, 30 mg daily, dose 28, GBA-PD, geometric mean, read-out: AUC0-last) was 7230 ng·h/mL. The Cmax ([3]; 60 mg, 60 mg daily, dose 1, GBA-PD, geometric mean) was 1530 ng/mL, the AUC(0-t) ([3]; 60 mg, 60 mg daily, dose 1, GBA-PD, geometric mean, read-out: AUC0-6) was 6080 ng·h/mL and the AUC(0-t) ([3]; 60 mg, 60 mg daily, dose 1, GBA-PD, geometric mean, read-out: AUC0-last) was 6100 ng·h/mL. For the same compound, the Cmax ([3]; 60 mg, 60 mg daily, dose 28, GBA-PD, geometric mean) was 2790 ng/mL, the AUC(0-t) ([3]; 60 mg, 60 mg daily, dose 28, GBA-PD, geometric mean, read-out: AUC0-6) was 14100 ng·h/mL and the AUC(0-t) ([3]; 60 mg, 60 mg daily, dose 28, GBA-PD, geometric mean, read-out: AUC0-last) was 14100 ng·h/mL. For the same compound, the Tmax ([3]; 10 mg daily, dose 1, GBA-PD) was 2 h, the Tmax ([3]; 30 mg daily, dose 1, GBA-PD) was 2 h and the Tmax ([3]; 60 mg daily, dose 1, GBA-PD) was 2 h. The “PK in healthy subjects versus subjects with GBA-PD” value ([3]; in vivo) was “similar”, the “default mode network (DMN) assessed by fMRI” value ([4]; 10 or 60 mg daily for 28 days, differences not statistically significant) was “improved the default mode network” and the “MDS-UPDRS III and MMSE scores” value ([4]; Day 28 vs Day -1, all subjects) was “unchanged”. The “steady state concentrations of Compound A” value [5] was “appeared not to have been reached”, the “effects on cardiac ECG parameters” value ([6]; doses of 60 and 150 mg) was “no clinically relevant effects” and the “effect on ΔΔQTcF (concentration-QTc analysis)” value ([6]; plasma concentrations of Compound A up to approximately 7150 ng/mL) was ≤ 10 ms.
